Laboratory results as given in patent US20170209514A1, “Method For Promoting Bone Length Growth” (Novatec Co., Ltd., priority 2013, published 2017).

How the values were obtained:
Format in all cases: in vivo, Sprague-Dawley rats
growth plate = test: Changes in cartilaginous tissues within the growth plate (H&E staining); conditions: rats, after 10-day administration, FIGS. 5A-7
Protocol: (§1) 3 weeks-old, male Sprague-Dawley rats were obtained and stabilized for 3 days. The feeding conditions included the temperature of 24±2° C., the light-dark cycle of 12 hours, and common solid feed without the inclusion of antibiotics. While the Control group was treated with saline solution, the bamboo (Bambusae caulis in Taeniam) extract, which was prepared in the powder form as described in the above example 1 and added with water, was orally administered once daily. The Positive Control group was treated subcutaneously with the injection of Eutropin (LG Life Sciences, South Korea) at 20 μg/kg once daily.
(§2) The administered substances and dosages in each group are as follows: • Control Group: normal saline solution 1 ml • Positive Control Group: growth hormone 20 μg/kg • Bamboo (Bambusae caulis in Taeniam)-treated Group: 200 mg/kg
(§3) After 10 days of feeding and administration of the above-mentioned substances, the rats were sacrificed with autopsy performed to find the following results.
In order to measure the length of the growth plate zone, the cartilaginous tissues were fixated after autopsy, followed by H&E staining and microscope examination. The length of the growth plate zone was measured five(5) times for each sample. The resulting mean values as obtained were used as a representative value for evaluating their significance.

tibia = test: Measurement of changes in tibia length by X-ray; conditions: rats, after 10-day administration, vs Control group, FIGS. 3A-3C & 4
Protocol: as §1, §2, §3
After 10-day administration as described in Experiment <1-1>, both right and left tibias of the rats in the experimental group (i.e. Bamboo (Bambusae caulis in Taeniam) extract-treated group) and the control groups were collected, followed by the removal of the muscles, fats and ligaments attached to the bone tissues. […] Tibia length was measured by X-ray radiographs on the tibias.

osteocalcin = test: Osteoblast-activating factor osteocalcin in the serum (ELISA); conditions: rats, after 10-day administration, in comparison with the Control group, FIG. 10
Protocol: as §1, §2, §3
After the completion of the administration, blood was collected from the hearts of the experimental rats and coagulated. Serum was then separated so as to obtain samples. Subsequently, the total level of osteocalcin in the serum was measured by using Rat Ostecalcin/Bone Gla Protein. OT/BGP ELISA Kit (Cusabio, product no.: CSB-E05129r).

[1] = Change in body weight of experimental animals; conditions: rats, observation of 10 days, FIG. 1 (bamboo extract 200 mg/kg oral; GH 20 μg/kg s.c.)
Protocol: as §1
Regarding the administration method of the bamboo (Bambusae caulis in Taeniam) extract according to the present invention, rats in all the groups except for the Positive Control group were administered into their oral cavities, while all the rats were administered once daily.
The administered substances and dosages in each group are as follows: • Control Group: normal saline solution 1 ml • Positive Control Group: growth hormone 20 μg/kg • Bamboo (Bambusae caulis in Taeniam)-treated Group: 200 mg/kg […]
Rats of each group in Experiment <1-1> were tested for their body weight at pre- and post-feeding of 10 days. […] The measured values were statistically analyzed for mean value and standard deviation.

For “GH: Growth hormone positive control, Eutropin (LG Life Sciences, South Korea), injected subcutaneously at 20 μg/kg once daily”, the “Length of the hypertrophic zone within the growth plate” value (growth plate) was “increased greater than that of the Control group”, the “Length of the proliferative zone within the growth plate” value (growth plate) was “increased greater than that of the Control group” and the Total tibia length (tibia) was “increased greater than that of the Control group”. The “Level of osteocalcin in the serum” value (osteocalcin) was “significantly increased” and the Weight change [1] was “no significant difference in weight change”.
